# In patent publication US8952157B2, “Apoptosis-inducing agents for the treatment of cancer and immune and autoimmune diseases” (AbbVie Inc., priority 2008, dated 2015):
# Target: GST-Bcl-2 (Homo sapiens (Human), UniProt P10415)
# Experiment: Time Resolved-Fluorescence Resonance Energy Transfer (TR-FRET) Bcl-2 binding assay
# Details: GST-Bcl-2 1 nM, F-Bak peptide probe 100 nM, Tb-anti-GST antibody 1 nM; Ki by Wang's equation
# Outline: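 Ki values derived from TR-FRET displacement of F-Bak peptide from GST-Bcl-2, detected with Tb-labelled anti-GST antibody (ex 340, em 520/495 nm). Compound dilution series started at 50 μM (2× starting concentration); room-temperature incubation 3 hours.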
# Sequence of GST-Bcl-2 (P10415 whole entry): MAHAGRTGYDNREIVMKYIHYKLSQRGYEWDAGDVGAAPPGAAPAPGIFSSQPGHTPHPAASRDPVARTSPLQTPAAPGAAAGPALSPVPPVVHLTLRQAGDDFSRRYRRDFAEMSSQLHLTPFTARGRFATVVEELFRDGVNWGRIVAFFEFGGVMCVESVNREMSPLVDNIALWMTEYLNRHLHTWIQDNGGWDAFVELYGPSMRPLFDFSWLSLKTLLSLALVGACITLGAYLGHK
row,SMILES,Ki [nM]
1,"O=C(NS(=O)(=O)c1ccc(NCCCN2CCOCC2)c([N+](=O)[O-])c1)c1ccc(N2CCN(Cc3ccccc3-c3ccc(Cl)cc3)CC2)cc1Oc1cccc(-c2ccncc2)c1 [Example 98, 4-(4-((4′-chloro-1,1′-biphenyl-2-yl)methyl)piperazin-1-yl)-N-((4-((3-morpholin-4-ylpropyl)amino)-3-nitrophenyl)sulfonyl)-2-(3-pyridin-4-ylphenoxy)benzamide]",0.959
2,"CC1(C)CCC(CN2CCN(c3ccc(C(=O)NS(=O)(=O)c4ccc(NC5CCN(C6CC6)CC5)c([N+](=O)[O-])c4)c(Oc4cnc(N)c(Cl)c4)c3)CC2)=C(c2ccc(Cl)cc2)C1 [Example 358, 2-[(6-amino-5-chloropyridin-3-yl)oxy]-4-(4-{[2-(4-chlorophenyl)-4,4-dimethylcyclohex-1-en-1-yl]methyl}piperazin-1-yl)-N-({4-[(1-cyclopropylpiperidin-4-yl)amino]-3-nitrophenyl}sulfonyl)benzamide]",0.062
3,"CN1CCC(Nc2ccc(S(=O)(=O)NC(=O)c3ccc(N4CCN(CC5=C(c6ccc(Cl)cc6)CC(C)(C)CC5)CC4)cc3Oc3cccc(F)c3)cc2[N+](=O)[O-])CC1 [Example 112, 4-(4-{[2-(4-chlorophenyl)-4,4-dimethylcyclohex-1-en-1-yl]methyl}piperazin-1-yl)-2-(3-fluorophenoxy)-N-({4-[(1-methylpiperidin-4-yl)amino]-3-nitrophenyl}sulfonyl)benzamide]",0.042
4,"CC1(C)CCC(CN2CCN(c3ccc(C(=O)NS(=O)(=O)c4ccc(NCC5CN(C6CC6)CCO5)c([N+](=O)[O-])c4)c(Oc4cnc(N)c(Cl)c4)c3)CC2)=C(c2ccc(Cl)cc2)C1 (centres unmarked) [Example 369, 2-[(6-amino-5-chloropyridin-3-yl)oxy]-4-(4-{[2-(4-chlorophenyl)-4,4-dimethylcyclohex-1-en-1-yl]methyl}piperazin-1-yl)-N-[(4-{[(4-cyclopropylmorpholin-2-yl)methyl]amino}-3-nitrophenyl)sulfonyl]benzamide]",0.014
5,"CN(C)CCCNc1ccc(S(=O)(=O)NC(=O)c2ccc(N3CCN(CC4=C(c5ccc(Cl)cc5)CC(C)(C)CC4)CC3)cc2Oc2ccc(F)cc2)cc1[N+](=O)[O-] [Example 139, 4-(4-{[2-(4-chlorophenyl)-4,4-dimethylcyclohex-1-en-1-yl]methyl}piperazin-1-yl)-N-[(4-{[3-(dimethylamino)propyl]amino}-3-nitrophenyl)sulfonyl]-2-(4-fluorophenoxy)benzamide]",0.125
6,"CN(C)CCCNc1ccc(S(=O)(=O)NC(=O)c2ccc(N3CCN(Cc4ccccc4-c4ccc(Cl)cc4)CC3)cc2Oc2cccc(CO)c2)cc1[N+](=O)[O-] [Example 107, 4-(4-((4′-chloro-1,1′-biphenyl-2-yl)methyl)piperazin-1-yl)-N-((4-((3-(dimethylamino)propyl)amino)-3-nitrophenyl)sulfonyl)-2-(3-(hydroxymethyl)phenoxy)benzamide]",0.331
7,"CC(c1ccccc1-c1ccc(Cl)cc1)N1CCN(c2ccc(C(=O)NS(=O)(=O)c3ccc(NCC4CCOCC4)c([N+](=O)[O-])c3)c(Oc3ccccc3Cl)c2)CC1 (centres unmarked) [Example 110, 4-{4-[1-(4′-chloro-1,1′-biphenyl-2-yl)ethyl]piperazin-1-yl}-2-(2-chlorophenoxy)-N-({3-nitro-4-[(tetrahydro-2H-pyran-4-ylmethyl)amino]phenyl}sulfonyl)benzamide]",0.039
8,"CN1CCC(Nc2ccc(S(=O)(=O)NC(=O)c3ccc(N4CCN(CC5=C(c6ccc(Cl)cc6)CC(C)(C)CC5)CC4)cc3Oc3cc(Cl)cc(Cl)c3)cc2[N+](=O)[O-])CC1 [Example 35, 4-(4-((2-(4-chlorophenyl)-4,4-dimethylcyclohex-1-en-1-yl)methyl)piperazin-1-yl)-2-(3,5-dichlorophenoxy)-N-((4-((1-methylpiperidin-4-yl)amino)-3-nitrophenyl)sulfonyl)benzamide]",0.022
9,"CC1(C)CCC(CN2CCN(c3ccc(C(=O)NS(=O)(=O)c4ccc(NCC5CCC(F)(F)CC5)c([N+](=O)[O-])c4)c(Oc4cc5cc[nH]c5cc4F)c3)CC2)=C(c2ccc(Cl)cc2)C1 [Example 411, 4-(4-{[2-(4-chlorophenyl)-4,4-dimethylcyclohex-1-en-1-yl]methyl}piperazin-1-yl)-N-[(4-{[(4,4-difluorocyclohexyl)methyl]amino}-3-nitrophenyl)sulfonyl]-2-[(6-fluoro-1H-indol-5-yl)oxy]benzamide]",21.3
10,"CC1(C)CCC(CN2CCN(c3ccc(C(=O)NS(=O)(=O)c4ccc(NCC5CCOCC5)c([N+](=O)[O-])c4)c(Oc4cc5cc[nH]c5c(F)c4F)c3)CC2)=C(c2ccc(Cl)cc2)C1 [Example 243, 4-(4-{[2-(4-chlorophenyl)-4,4-dimethylcyclohex-1-en-1-yl]methyl}piperazin-1-yl)-2-[(6,7-difluoro-1H-indol-5-yl)oxy]-N-({3-nitro-4-[(tetrahydro-2H-pyran-4-ylmethyl)amino]phenyl}sulfonyl)benzamide]",0.069
11,"CC1(C)CCC(CN2CCN(c3ccc(C(=O)NS(=O)(=O)c4cnc(OCC5(F)CCOCC5)c(C#N)c4)c(Oc4cc5cc[nH]c5cc4F)c3)CC2)=C(c2ccc(Cl)cc2)C1 [Example 308, 4-(4-{[2-(4-chlorophenyl)-4,4-dimethylcyclohex-1-en-1-yl]methyl}piperazin-1-yl)-N-({5-cyano-6-[(4-fluorotetrahydro-2H-pyran-4-yl)methoxy]pyridin-3-yl}sulfonyl)-2-[(6-fluoro-1H-indol-5-yl)oxy]benzamide]",0.04
12,"CC1(C)CCC(CN2CCN(c3ccc(C(=O)NS(=O)(=O)c4ccc(NCC5CCOCC5)c([N+](=O)[O-])c4)c(Oc4cnc(N)c(Cl)c4)c3)CC2)=C(c2ccc(Cl)cc2)C1 [Example 318, 2-[(6-amino-5-chloropyridin-3-yl)oxy]-4-(4-{[2-(4-chlorophenyl)-4,4-dimethylcyclohex-1-en-1-yl]methyl}piperazin-1-yl)-N-({3-nitro-4-[(tetrahydro-2H-pyran-4-ylmethyl)amino]phenyl}sulfonyl)benzamide]",< 0.01
13,"CCN(Cc1cccc(Oc2cc(N3CCN(Cc4ccccc4-c4ccc(Cl)cc4)CC3)ccc2C(=O)NS(=O)(=O)c2ccc(NCC3CCOCC3)c([N+](=O)[O-])c2)c1)C(=O)OC(C)(C)C [Example 79, tert-butyl 3-(5-(4-((4′-chloro-1,1′-biphenyl-2-yl)methyl)piperazin-1-yl)-2-((((3-nitro-4-((tetrahydro-2H-pyran-4-ylmethyl)amino)phenyl)sulfonyl)amino)carbonyl)phenoxy)benzyl(ethyl)carbamate]",99.8
14,"CC1(C)CCC(CN2CCN(c3ccc(C(=O)NS(=O)(=O)c4ccc(NCC5CCOCC5)c([N+](=O)[O-])c4)c(Oc4ccc(O)nc4)c3)CC2)=C(c2ccc(Cl)cc2)C1 [Example 283, 4-(4-{[2-(4-chlorophenyl)-4,4-dimethylcyclohex-1-en-1-yl]methyl}piperazin-1-yl)-2-[(6-hydroxypyridin-3-yl)oxy]-N-({3-nitro-4-[(tetrahydro-2H-pyran-4-ylmethyl)amino]phenyl}sulfonyl)benzamide]",17.2
15,"CC1(C)CCC(CN2CCN(c3ccc(C(=O)NS(=O)(=O)c4ccc(NCCN5CCOCC5)c([N+](=O)[O-])c4)c(Oc4cccc(F)c4F)c3)CC2)=C(c2ccc(Cl)cc2)C1 [Example 135, 4-(4-{[2-(4-chlorophenyl)-4,4-dimethylcyclohex-1-en-1-yl]methyl}piperazin-1-yl)-2-(2,3-difluorophenoxy)-N-({4-[(2-morpholin-4-ylethyl)amino]-3-nitrophenyl}sulfonyl)benzamide]",0.068
16,"CC1(C)CC(c2ccc(Cl)cc2)=C(CN2CCN(c3ccc(C(=O)NS(=O)(=O)c4cnc(OCC5CCOCC5)c(C#N)c4)c(Oc4cc5cc[nH]c5cc4F)c3)CC2)CO1 [Example 298, 4-(4-{[4-(4-chlorophenyl)-6,6-dimethyl-5,6-dihydro-2H-pyran-3-yl]methyl}piperazin-1-yl)-N-{[5-cyano-6-(tetrahydro-2H-pyran-4-ylmethoxy)pyridin-3-yl]sulfonyl}-2-[(6-fluoro-1H-indol-5-yl)oxy]benzamide]",0.054
17,"Cc1nc2cc(Oc3cc(N4CCN(Cc5ccccc5-c5ccc(Cl)cc5)CC4)ccc3C(=O)NS(=O)(=O)c3ccc(NCCCN(C)C)c([N+](=O)[O-])c3)ccc2s1 [Example 25, 4-(4-((4′-chloro-1,1′-biphenyl-2-yl)methyl)piperazin-1-yl)-N-((4-((3-(dimethylamino)propyl)amino)-3-nitrophenyl)sulfonyl)-2-((2-methyl-1,3-benzothiazol-5-yl)oxy)benzamide]",1.5
18,"CN1CCC(Nc2ccc(S(=O)(=O)NC(=O)c3ccc(N4CCN(CC5=C(c6ccc(Cl)cc6)CC(C)(C)CC5)CC4)cc3Oc3cccc(O)c3Cl)cc2[N+](=O)[O-])CC1 [Example 171, 2-(2-chloro-3-hydroxyphenoxy)-4-(4-{[2-(4-chlorophenyl)-4,4-dimethylcyclohex-1-en-1-yl]methyl}piperazin-1-yl)-N-({4-[(1-methylpiperidin-4-yl)amino]-3-nitrophenyl}sulfonyl)benzamide]",0.066
19,"CC(c1ccccc1-c1ccc(Cl)cc1)N1CCN(c2ccc(C(=O)NS(=O)(=O)c3ccc(NC4CCN(C)CC4)c([N+](=O)[O-])c3)c(Oc3ccccc3Cl)c2)CC1 (centres unmarked) [Example 206, 4-{4-[1-(4′-chloro-1,1′-biphenyl-2-yl)ethyl]piperazin-1-yl}-2-(2-chlorophenoxy)-N-({4-[(1-methylpiperidin-4-yl)amino]-3-nitrophenyl}sulfonyl)benzamide]",0.037
20,"CC1(C)CCC(CN2CCN(c3ccc(C(=O)NS(=O)(=O)c4cnc(OC5CCN(C6CCOCC6)CC5)c(C#N)c4)c(Oc4cc5cc[nH]c5cc4F)c3)CC2)=C(c2ccc(Cl)cc2)C1 [Example 325, 4-(4-{[2-(4-chlorophenyl)-4,4-dimethylcyclohex-1-en-1-yl]methyl}piperazin-1-yl)-N-({5-cyano-6-[(1-tetrahydro-2H-pyran-4-ylpiperidin-4-yl)oxy]pyridin-3-yl}sulfonyl)-2-[(6-fluoro-1H-indol-5-yl)oxy]benzamide]",0.183
